Experimental data from paper PMC12040169 (PLOS Biology, 2025).

Assay: in vitro
Settings: human, hela cells
[1] = % viability, bulk resorufin, single well

Structure (SMILES)	viability at 28.5 h, 10 µM (% viability)	also measured
CC(=O)Nc1cccc(Oc2nccnc2-c2cnn(Cc3ccccc3)c2)c1 [CBK107096]	101%	–
COc1nccnc1-c1ccc(Cl)c(Cl)c1 [CBK107110]	98.7%	–
CN1CCCN(C(=O)c2ccc(-c3nc(-c4ccc(C#N)cc4)cnc3N)cc2)CC1 [CBK107140]	93.9%	–
Cc1ccccc1NC(=O)c1ccc(Br)o1 [CBK107152]	88.2%	–
CC(C)Nc1cc(SC2CCCCC2)ncn1 [CBK107163]	92.4%	–
CNC(=O)CSc1nc2ccccc2nc1NC(C)C [CBK107171]	99.7%	–
CCOC(=O)CSc1nc2cc(Cl)c(Cl)cc2nc1NC(C)C [CBK107173]	97.1%	–
FC(F)(F)c1cccc(CSc2nccnc2N2CCCC2)c1 [CBK107178]	94.7%	–
FC(F)(F)c1cccc(CSc2nc3ccccc3nc2N2CCCC2)c1 [CBK107190]	91.5%	–
FC(F)(F)c1cccc(SCc2ccc(Cl)cc2)n1 [CBK107197]	91.9%	–
Fc1ccc(CSc2nc3ccccc3nc2C(F)(F)F)cc1 [CBK107199]	98.6%	–
CCOC(=O)CSc1nc2ccccc2nc1C(F)(F)F [CBK107200]	92.8%	–
FC(F)(F)c1nc2ccccc2nc1SCc1ccco1 [CBK107201]	85.9%	–
FC(F)(F)c1nc2ccccc2nc1SCCc1ccccc1 [CBK107204]	90.3%	–
Cc1ccccc1S(=O)(=O)Nc1cc(CN2C[C@H](C)NC[C@H]2C)c2occc2c1 [CBK107210T]	108%	–
O=C(NCc1ccccn1)c1ccccc1Nc1cccc(C(F)(F)F)c1 [CBK107252]	86.3%	–
O=C(NCCN1CCCC1)c1cc2cc(Cl)ccc2[nH]1 [CBK107267]	88%	–
O=C(Nc1cccnc1)c1cc2cc(F)ccc2[nH]1 [CBK107272]	93.2%	–
O=C(NCc1ccccn1)c1cc2cc(F)ccc2[nH]1 [CBK107276]	102%	–
O=C(c1cc2cc(F)ccc2[nH]1)N1CCN(c2ncccn2)CC1 [CBK107280]	91.8%	–
CC(C)(C)c1cc(C(=O)Nc2ccncc2)n(Cc2ccc(Cl)cc2Cl)n1 [CBK107284]	107%	–
CC(C)(C)c1cc(C(=O)N2CCN(c3ncccn3)CC2)n(Cc2ccc(Cl)cc2Cl)n1 [CBK107294]	105%	–
O=C(Cc1csc(-c2ccc(Cl)cc2)n1)Nc1cccnc1 [CBK107300]	101%	–

Structure (SMILES)	viability at 28.5 h, 10 µM (% viability)	also measured
O=C(Nc1cccnc1)c1cc2cc(OC(F)(F)F)ccc2[nH]1 [CBK107313]	95.1%	–
O=C(Nc1ccncc1)c1cc2cc(Cl)ccc2[nH]1 [CBK107340]	95%	–
O=C(c1cc2cc(Cl)ccc2[nH]1)N1CCN(c2ccccn2)CC1 [CBK107343]	93.7%	–
NCCNC(=O)c1cc2cc(F)ccc2[nH]1 [CBK107345]	95.8%	–
O=C(Nc1ccncc1)c1cc2cc(F)ccc2[nH]1 [CBK107346]	103%	–
CN(C)CCCNC(=O)c1cnc2cc(Cl)ccc2c1O [CBK107354]	94.4%	–
O=C(c1cnc2cc(Cl)ccc2c1O)N1CCN(c2ncccn2)CC1 [CBK107358]	108%	–
CC(C)(C)c1cc(C(=O)Nc2ccccn2)n(Cc2ccc(Cl)cc2Cl)n1 [CBK107361]	89.6%	–
O=C(Cc1csc(-c2ccc(Cl)cc2)n1)Nc1ccccn1 [CBK107364]	85.8%	–
CCCc1c(C(=O)NCCCN(C)C)cnn1-c1cc(Cl)cc(Cl)c1 [CBK107376]	89.3%	–
CCCc1c(C(=O)N2CCN(c3ncccn3)CC2)cnn1-c1cc(Cl)cc(Cl)c1 [CBK107383]	102%	–
Cc1c(C(=O)Nc2cccnc2)nnn1-c1cccc(C(F)(F)F)c1 [CBK107389]	97.1%	–
Cc1c(C(=O)NCc2ccccn2)nnn1-c1cccc(C(F)(F)F)c1 [CBK107395]	92.9%	–
O=C(Nc1cccnc1)c1cc(C(=O)c2ccc(Cl)cc2Cl)c[nH]1 [CBK107406]	93.7%	–
O=C(c1c[nH]c(C(=O)N2CCN(c3ccccn3)CC2)c1)c1ccc(Cl)cc1Cl [CBK107419]	86.5%	–
O=C(NCCN1CCCC1)c1cnc2cc(C(F)(F)F)ccc2c1O [CBK107426]	104%	–
O=C(c1cnc2cc(C(F)(F)F)ccc2c1O)N1CCN(c2ccccn2)CC1 [CBK107431]	94.8%	–
COc1ccc(Nc2cc(Cl)ccc2C(=O)NC(C)(C)CN2CCOCC2)cn1 [CBK107436]	97.1%	–
O=C(Nc1ccccn1)c1cnn(-c2ccc(Cl)cc2)c1C(F)(F)F [CBK107442]	92.2%	–
O=C(c1cnn(-c2ccc(Cl)cc2)c1C(F)(F)F)N1CCN(c2ncccn2)CC1 [CBK107448]	98%	–
NCCCNC(=O)c1ccc(-c2cccc(C(F)(F)F)c2)o1 [CBK107454]	89.4%	–
O=C(Nc1cccnc1)c1cnc2cc(C(F)(F)F)ccc2c1O [CBK107474]	77.8%	–
CCn1c(SCC(=O)Nc2ccc([N+](=O)[O-])cc2)nnc1C(NC(=O)c1ccccc1)C(C)C (stereo not drawn) [CBK107508]	94.9%	–

Structure (SMILES)	viability at 28.5 h, 10 µM (% viability)	also measured
Cc1nc(C)c(C(=O)Nc2ccccc2-c2ccc3c(c2)COC2(CCNCC2)O3)s1 [CBK107628]	–	viability at 28.5 h, 10 µM [1]: 96.8%
CN(C)c1cccc(NC(=O)Nc2ncc(Br)c3cccnc23)c1 [CBK107633]	94%	–
O=C(Nc1ccc(OC(F)F)cc1)Nc1ncc(Br)c2cccnc12 [CBK107635]	115%	–
CN(C)C(=O)Oc1ccc2[nH]c3c(c2c1)CCNC31CCN(CCOc2ccccc2)C1 (stereo not drawn) [CBK107679]	–	viability at 28.5 h, 10 µM: 95.1%
O=C(Nc1ccc2oc(-c3cccnc3)nc2c1)c1ccc(-c2ccc(OC(F)(F)F)cc2)o1 [CBK107713]	101%	–
CNC(=O)CSc1nccc(C(F)(F)F)n1 [CBK107759]	101%	–
CNCc1cc(Br)c(OCC(=O)Nc2ccccc2OC)c(OC)c1 [CBK107772]	106%	–
NC1=C2NN(c3ccc(Cl)cc3Cl)N=C2N(c2ccccc2)N1 [CBK107773]	98.1%	–
Clc1ccccc1OCCNC1CCc2[nH]c3ccccc3c2C1 (stereo not drawn) [CBK107790]	107%	–
Fc1ccc(OCCNC2CCc3[nH]c4ccccc4c3C2)cc1 (stereo not drawn) [CBK107791]	83.7%	–
COC(=O)CCCN1CCCC12CCc1[nH]c3ccccc3c1C2 (stereo not drawn) [CBK107798T]	95.6%	–
Oc1ccc(-c2cncc(Nc3cccc(Br)c3)n2)cc1 [CBK107803]	84.8%	–
CC(C)(C)OC(=O)N1CCC2(CC1)OCc1cc(-c3cccc(C(=O)O)c3)ccc1O2 [CBK107809]	–	viability at 28.5 h, 10 µM [1]: 87.5%
CCCc1cc(-c2c(Cl)cccc2Cl)[nH]n1 [CBK107818]	91.2%	–
COc1ccc(C(C)NC(=O)c2cccc(-c3ccc4c(c3)COC3(CCN(C(=O)OC(C)(C)C)CC3)O4)c2)cc1 (stereo not drawn) [CBK107833]	–	viability at 28.5 h, 10 µM [1]: 100%
CC(C)(C)OC(=O)N1CCC2(CC1)OCc1cc(-c3cccc(C(=O)NCc4ccc(Cl)cc4)c3)ccc1O2 [CBK107834]	–	viability at 28.5 h, 10 µM [1]: 93.3%
O=C(NC1CCCCCC1)c1[nH]nc(O)c1Cc1c(Cl)cccc1Cl [CBK107847]	91.9%	–
COc1ccc(CCCC(=O)Nc2cc(N3CCNCC3)ncn2)cc1OC [CBK107856]	93.9%	–
CC(C)Nc1nc2ccccc2nc1SCCC(=O)O [CBK107858]	106%	–
O=C(O)CCSc1nc2ccccc2nc1N1CCCC1 [CBK107862]	95.7%	–
O=C(O)CSc1nc2cc(Cl)c(Cl)cc2nc1N1CCCC1 [CBK107863]	92.9%	–
O=C(Cc1ccc(Cl)c(Cl)c1)Nc1ccccc1-c1ccc2c(c1)COC1(CCNCC1)O2 [CBK107890]	–	viability at 28.5 h, 10 µM [1]: 100%
COc1ccccc1-c1[nH]nc(O)c1Cc1c(Cl)cccc1Cl [CBK107933]	86.1%	–

Structure (SMILES)	viability at 28.5 h, 10 µM (% viability)	also measured
CCC1(CC)OC(NC23CC4CC(CC(O)(C4)C2)C3)=NC1=O [CBK107938]	99.1%	–
Cc1ccc(C)c2[nH]c(=O)c(CN(CCN3CCOCC3)Cc3nnnn3Cc3ccccc3)cc12 [CBK108063]	93.1%	–
CCc1cc2cc3c(cc2nc1SCC(=O)Nc1cc(OC)ccc1OC)OCO3 [CBK108546]	91.8%	–
CCc1cc2cc3c(cc2nc1SCC(=O)Nc1cccc(C(C)=O)c1)OCO3 [CBK108551]	92.6%	–
Cc1cc(C)c2cc(CN(CCO)Cc3nnnn3CC3CCCO3)c(=O)[nH]c2c1 (stereo not drawn) [CBK108944]	80%	–
CCOC(=O)Cc1csc(NC(=O)CSc2nc3cc4c(cc3cc2C)OCO4)n1 [CBK109112]	105%	–
Cc1cccc2cc(C#N)c(NCCCn3ccnc3)nc12 [CBK109369]	77.9%	–
O=C1c2ccccc2CN1c1cccc(Cl)c1Cl [CBK109916]	82.3%	–
COc1ccc2c(c1OC)C(=O)N(c1cccc(/C=C/C(=O)O)c1)C2 [CBK109932]	90.3%	–
COc1ccc2c(c1OC)C(=O)N(c1ncc(C)s1)C2 [CBK109943]	99%	–
O=C1c2ccccc2C2OCc3ccccc3N12 (stereo not drawn) [CBK109952]	105%	–
CC(=O)OCc1nc2cc(F)c(F)cc2[nH]1 [CBK110117]	92.9%	–
Cc1ccc(S(=O)(=O)NC(C)C(=O)Nc2cc(-c3nc4ccccc4[nH]3)ccc2C)cc1 (stereo not drawn) [CBK110320]	96.2%	–
O=[N+]([O-])c1cc([N+](=O)[O-])c2cccnc2c1NNc1nncc2ccccc12 [CBK110409]	85.1%	–
Cc1nc2cc(Cl)ccc2n1CCO [CBK110738]	100%	–
CCCCC(=O)NC(c1ccccc1OC)c1cc(Cl)c2cccnc2c1O (stereo not drawn) [CBK110947]	84.4%	–
O=C(C1=C(O)C(=O)N(CCCn2ccnc2)C1c1ccncc1)c1cccs1 (stereo not drawn) [CBK111017]	106%	–
O=C(CN1CCOCC1)Nc1c2c(nc3ccccc13)N(c1ccccc1)CC2 [CBK111136G]	87.9%	–
COc1ccc2occ(C(=O)c3ccc(N)cc3)c2c1 [CBK111303]	81.8%	–
COc1ccc(C)cc1NS(=O)(=O)CC(C)C [CBK111346]	93.8%	–
COc1ccc(C(=O)c2c[nH]c3ccccc23)cc1 [CBK111451]	88.9%	–
